The values below come from PubChem BioAssay (NCI).

Structures are written as SMILES.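 Dose response: 5 concentrations. Exposure: 48 h. Format: 96-well plates. Endpoint: linear interpolation; highest concentration if not reached. Abbreviation: GI50, concentration required for 50% inhibition of growth. TGI denotes the concentration required for complete inhibition of growth.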

Common to all, as to assay: NCI anticancer screen, dose series, 48 h
Test [1] deals with UO-31 renal.
Test [2] relates to HCT-116 colon.
For test [3], the system named is M14 melanoma.
The test system of test [4] is CCRF-CEM leukemia.
The subject of test [5] is IGROV1 ovarian.
Test [6] deals with HCC-2998 colon.
The subject of test [7] is SK-MEL-5 melanoma.
Test [8] relates to HS 578T breast.
The subject of test [9] is SN12C renal.
Test [10] relates to SK-MEL-2 melanoma.

As to `COc1ccc(-n2cc(-c3cc(OC)c(OC)c(OC)c3)nc2SCc2ccccc2)cc1`, the GI50 in test [1] is 28 µM; in test [2], 17.5 µM; in test [3], above 100 µM; in [4], 3.63 µM; in test [5], above 100 µM; in [6], 45.5 µM. The GI50 in test [7] is 8.54 µM; in test [8], above 100 µM; in [9], above 100 µM; in [10], above 100 µM. The TGI in test [1], in [2], in [3], in test [4], in test [5] and in [6] was above 100 µM each time. The TGI in test [7] was 56.7 µM; in [8], above 100 µM; in test [9], above 100 µM; in test [10] it was above 100 µM.

Regarding `Cn1cc(C2=C(c3cn(CCO)c4ccccc34)C(=O)NC2=O)c2ccccc21`, the GI50 in test [1] was 3.2 µM; in test [2], 1.49 µM; in [3], 2.12 µM; in [4] it was 1.37 µM; in test [5] it was 4.93 µM; in [6], 5.56 µM. For the same molecule, the GI50 in test [7] was 2.55 µM; in [8] it was 1.49 µM; in [9], 4.75 µM; in [10], 1.65 µM. For the same molecule, the TGI in test [1] was 14.6 µM; in test [2], above 25 µM; in test [3], above 25 µM; in test [4], above 20 µM; in test [5], 14.9 µM; in [6] it was above 23.6 µM. Further, the TGI is 9.67 µM in test [7], 14.5 µM in test [8], above 25 µM in [9] and 8.37 µM in [10].

Take `O=[N+]([O-])c1ccccc1N=Nc1c(O)[nH]c2ccc(Br)cc12`: the TGI was 44.7 µM in [1]; above 67 µM in test [2]; 44.7 µM in test [3]; 31.9 µM in test [4]; 20.1 µM in [5]; 34.1 µM in [6]. Also, the TGI in test [7] is above 37.7 µM; in [8] it was 46.2 µM; in [9], 44.8 µM; in test [10], 54.1 µM.

As to `Clc1ccc(/C=C/c2cc(N3CCOCC3)c3cc(Cl)c(Cl)cc3n2)cc1`, the GI50 is 0.71 µM in [1]; above 100 µM in test [2]; above 100 µM in test [3]; 0.302 µM in [4]; above 100 µM in [5]; above 100 µM in test [6]. For the same molecule, the GI50 is above 100 µM in test [7], above 100 µM in [8], 1.54 µM in test [9] and above 100 µM in test [10]. Besides, the TGI is above 45.7 µM in test [1]; above 100 µM in [2]; above 100 µM in test [3]; above 51 µM in test [4]; above 100 µM in [5]; above 100 µM in test [6]. Also, the TGI in test [7], in test [8], in test [9] and in [10] was above 100 µM in each case.

`Cn1cc(C2=C(c3cccc(N)c3)C(=O)NC2=O)c2ccccc21`: the GI50 in [1] was 14.1 µM; in test [2], 7.94 µM; in test [3], above 25 µM; in test [4], 11.2 µM; in test [5], above 22.4 µM; in test [6] it was above 25 µM. The GI50 in test [7] is 9.66 µM; in test [8] it was 1.34 µM; in test [9] it was 13.7 µM; in test [10] it was 14.3 µM. Also, the TGI in test [1], in test [2], in test [3], in [4], in test [5] and in test [6] was above 25 µM throughout. The TGI in test [7], in test [8], in test [9] and in test [10] was above 25 µM each time.

With `Nc1cc(C(=O)O)[nH]c(=O)n1`, the TGI in test [1], in test [2], in [3], in test [4], in [5] and in test [6] was above 100 µM throughout. Moreover, the TGI in [7], in test [8], in [9] and in test [10] was above 100 µM each time.

On to `COc1cccc(C2C3=C(COC3=O)N(CCO)c3cc(OC)ccc32)c1` (stereo not drawn), for which the GI50 in [1] is 0.187 µM; in [2], 0.107 µM; in test [3], 0.156 µM; in test [4], 0.204 µM; in test [5], 0.305 µM; in test [6], 0.137 µM. Besides, the GI50 was 0.0474 µM in test [7], 0.188 µM in test [8], 0.493 µM in test [9] and 0.536 µM in test [10]. In addition, the TGI in [1] was above 100 µM; in [3], above 100 µM; in test [4], above 100 µM; in test [5], above 100 µM; in [6], above 100 µM; in test [7] it was 1.97 µM. Also, the TGI in test [8] was above 80.8 µM; in [9], above 100 µM.

Consider `CC(C)Nc1ccc(Nc2ccccc2)cc1`, for which the GI50 in [1] was 14.1 µM; in test [2], 14.1 µM; in [3], 14.9 µM; in [4], 12.5 µM; in test [5], 14.2 µM; in test [6], 25.3 µM. In addition, the GI50 in test [7] was 11.4 µM; in test [8], 38.3 µM; in test [9] it was 27.1 µM; in test [10] it was 25.6 µM. Besides, the TGI in test [1] is 64.9 µM; in test [2], 31.4 µM; in test [3] it was 33 µM; in test [4] it was above 100 µM; in [5] it was 37.3 µM; in test [6] it was above 100 µM. The TGI in test [7] was 24.9 µM; in test [8] it was above 100 µM; in [9], above 100 µM; in test [10], 66.3 µM.
